# Source: patent publication US20180273464A1, “SYNTHESIS AND IN VITRO ACTIVITY OF D-LACTIC ACID OLIGOMERS” (priority 2018, published 2018)
# How the values were obtained:
# [1] = Sequestration of L-lactate by D-lactic acid oligomers, tetrazolium indicator color test strips; settings: for Tetrazolium indicator (L-lactic acid): room temperature, 2 minutes; for sequestration of L-lactate in vitro: summary statement
# Protocol: Lactic acid concentration was measured by tetrazolium indicator color test strips (Accuvin, LLC, Napa, Calif.) from the reaction of L-lactic acid and […] in the presence of lactate dehydrogenase. Samples of D-lactic acid oligomers (n=2, n=3, n=4, n=5, and n=6) were weighed on truncated 100 microliter pipette tips. […] The reactions were carried out at room temperature for 2 minutes, then 20 microliters were applied to L-lactic acid test strips, and the results were read after 2 minutes.
# retinoblastoma cells = settings: earlier work (Goldberg, Weinberg 2016, 2017); cited from earlier work
# normal fibroblasts = settings: at a similar hydrogen ion concentration; cited from earlier work
# cultured leukemia cells = settings: earlier work (Goldberg, Weinberg 2016, 2017); cited from earlier work
# HeLa cells = settings: earlier work (Goldberg, Weinberg 2016, 2017); cited from earlier work
# [2] = earlier work (Goldberg, Weinberg 2017); cited from earlier work
# [3] = 5.0 mg oligomer in 40 microliters of 10 mM L-lactic acid
smiles,measurement,setting,value
C[C@@H](O)C(=O)O[C@H](C)C(=O)O [D-lactic acid dimer],Tetrazolium indicator (L-lactic acid),[1]; 0.5 mg oligomer in 40 microliters of 10 mM L-lactic acid,80 mg/L
same,Tetrazolium indicator (L-lactic acid),[1]; 1.0 mg oligomer in 40 microliters of 10 mM L-lactic acid,no color change
same,Tetrazolium indicator (L-lactic acid),"[1]; 5.0 mg oligomer in 40 microliters of 10 mM L-lactic acid, result in words",no color change
same,Tetrazolium indicator (L-lactic acid),[1]; 7.0 mg oligomer in 40 microliters of 10 mM L-lactic acid,no color change
same,killing of cultured retinoblastoma cells,retinoblastoma cells,kill
same,cytotoxicity to normal fibroblasts compared with L-lactic acid,normal fibroblasts,less cytotoxic than L-lactic
same,killing of cultured leukemia cells,cultured leukemia cells,kill
same,killing of cultured HeLa cells,HeLa cells,kill
same,sequestration of L-lactate,[2],“sequester or trap” L-lactate
"C[C@@H](O)C(=O)O[C@H](C)C(=O)O[C@H](C)C(=O)O [D-lactic acid n = 3, D-lactic acid trimer]",Tetrazolium indicator (L-lactic acid),[1]; [3],greater than 400 mg/L
same,sequestration of L-lactate in vitro,[1],did not sequester L-lactate
"CC(O)C(=O)OC(C)C(=O)OC(C)C(=O)OC(C)C(=O)O [D-lactic acid n = 4, D-lactic acid tetramer]",Tetrazolium indicator (L-lactic acid),[1]; [3],greater than 400 mg/L
same,sequestration of L-lactate in vitro,[1],did not sequester L-lactate
"CC(O)C(=O)OC(C)C(=O)OC(C)C(=O)OC(C)C(=O)OC(C)C(=O)O [D-lactic acid n = 5, D-lactic acid pentamer]",Tetrazolium indicator (L-lactic acid),[1]; [3],greater than 400 mg/L
same,sequestration of L-lactate in vitro,[1],did not sequester L-lactate
"CC(O)C(=O)OC(C)C(=O)OC(C)C(=O)OC(C)C(=O)OC(C)C(=O)OC(C)C(=O)O [D-lactic acid n = 6, D-lactic acid hexamer]",Tetrazolium indicator (L-lactic acid),[1]; [3],greater than 400 mg/L
same,sequestration of L-lactate in vitro,[1],did not sequester L-lactate
